Data set [1] in a line: Absorption spectra of dye-containing processed films (λmax), C-41 process. It counts as physicochemical. The settings on record: coupler:S1 1:0.5. How it is done:
(§1) Dispersions of the comparative couplers B1-B3 and B8 and of the couplers of this invention M1-M3 were prepared by dissolving the coupler in the coupler solvent S1 plus the auxiliary solvent 2-(2-butoxyethoxy)ethyl acetate and then dispersing this oil phase in an aqueous solution of gelatin and surfactant using an ultrasonic probe. The dispersions were chilled and washed for 6 hr at 4° C. to remove the auxiliary solvent. The dispersions contained approximately 8.8% coupler, 4.4% S1 and 6% gelatin by weight.
(§2) The dispersions were coated at 1.04 mmole/sq m together with a silver bromoiodide emulsion on a transparent acetate support in the format shown below. Hardened film strips were exposed through a 0-4 neutral density stepwedge and daylight V and WRATTEN 9 filters and subjected to a standard C-41 process at 37.8° C. The process consists of 2.5 min in color developer, 4 min in a ferric EDTA/PDTA bleach solution, 2 min wash, 4 min fix and 2 min final wash. Photographic gamma values were obtained from the slopes of plots of status M green density vs. exposure for processed samples. Absorption spectra of the dye-containing processed films were measured at a density near 1.0 on a spectrophotometer and the wavelengths of maximum absorption (λ max values) were recorded.
(§3) BVSM* Hardener 0.06 g/sq m
(§4) Coupler Solvent S1 1/2 coupler laydown
(§5) Dispersions of couplers B3, M1 and M5 with S1 (1:0.5) were prepared and coated as in Example 2. Film strips of these coatings were exposed, processed and analyzed as in Example 2. λmax values and gamma values associated with these film compositions are listed in Table III. This series further illustrates the use of electron-withdrawing substituents to obtain magenta dyes of the proper hue.
(§6) Dispersions of the comparative couplers B4, B5 and B8 and the couplers of this invention M6-M11 were prepared and coated as in Example 2. The coupler solvent S1 was again used at a 1:0.5 coupler:S1 weight ratio. Film strips of the hardened coatings were exposed, processed and analyzed as in Example 2. Couplers B4 and M6-M8 have a strongly electron-withdrawing alkoxycarbonyl substituent in the R2 position and couplers B5 and M9-M11 have a strongly electron-withdrawing alkylsulfonyl group at R2. […] The couplers of this invention, M6-M11, which have strong electron-withdrawing groups in each ring, yield dyes having the desired bathochromic hues, as shown by the λmax values. The gamma values obtained with the couplers of this invention are suitably high to be useful in photographic materials, as indicated by comparison to the gamma obtained from the commercial coupler B8.
(§7) Dispersions of the comparison couplers B6 and B7, and of the couplers of this invention M12-M17, were prepared using the coupler solvent Sl as in Example 2. These were coated as in Example 2, and hardened film strips were exposed, processed and analyzed as in Example 2. The results obtained are summarized in Table V. In this example all of the couplers have sulfamoyl or alkylsulfonyl substituents in the R1 position and the R2 substituent on the 3-anilino ring is varied. Comparative couplers B6 and B7 have chloro substituents at R2, whereas M12-M17 of this invention have strong electron withdrawing R2 groups. […] The gamma values of the couplers of this invention are similar to those of the comparative couplers.

The nature of data set [2]: Photographic gamma (slope of status M green density vs. exposure), C-41 process. The conditions noted are these: coupler:S1 1:0.5. Here is the method: as §1, §2, §3, §4, §5, §6, §7
Data set [3] is described as follows: Formaldehyde exposure test (loss of dye density obtainable on processing). The conditions noted are these: Table II, Example 3; 48 hr formaldehyde exposure, 60% RH; relative to water-glycerol only. From the text:
Prior examples of 3-anilino-1-phenyl-5-pyrazolone couplers that yield bathochromic dyes have been limited to four-equivalent couplers or to couplers with coupling-off groups other than arylthio or alkylthio groups. The four-equivalent couplers are not suitable for the practice of this invention because of their high propensity to react with formaldehyde or other hardeners. This can be illustrated by exposing coupler-containing films to formaldehyde and noting the changes in the dye density obtainable upon photographic processing. To obtain the data in Table II one set of film strips was suspended in a light-tight tank over a beaker containing 10 g of formaldehyde, and a solution of 14 g of water and 36 g of glycerol (60% RH) for 48 hr. A second set of strips was suspended for 48 hr over a water-glycerol solution without the beaker of formaldehyde. The strips were then exposed through a stepwedge, process (C-41) and the densities were measured. Values of the percent reduction in (Dmax-Dmin) for the samples exposed to formaldehyde relative to the samples exposed to water-glycerol only were determined.
Coatings of B8,B9 and M1 prepared as described in Example 2 were subjected to the formaldehyde test.

Data set [4] is described as follows: Continued coupling in bleach, delta Dmin process B - process A. The settings on record: Table VI. How it is done: (§8) Dispersions of the coupler B3 were prepared with coupler solvents S1 and C2, both at a 1:1 B3:coupler solvent weight ratio. Dispersions of coupler M1 were prepared with C2 at 1:1 and with C2 plus aniline A1 at a 1:0.8:0.2 M1:C2:A1 weight ratio. These dispersions were prepared by dissolving the coupler in a mixture of coupler solvent, aniline A1 (optional) and cyclohexanone. The coupler:cyclohexanone weight ratio was 1:3. This mixture was then added to an aqueous solution of gelatin and ALKANOL XC surfactant. The two-phase mixture was then passed through a colloid mill to disperse the coupler-containing oil phase in the aqueous phase in the form of small droplets. The dispersion was then chilled, noodled and washed to remove the auxiliary cyclohexanone solvent. The resulting dispersions contained approximately 2% by weight of coupler and 6% by weight of gelatin.
(§9) The dispersions were then coated on a transparent support together with a silver bromoiodide emulsion in the format shown below. Coatings were then exposed through a stepwedge and subjected to variants of the KODAK FLEXICOLOR (C-41) process described below. One set of film samples was processed with an acetic acid stop bath between the development and bleach steps (process A). A second set of films was processed without a stop bath and with the bleach pH adjusted to 6.0 instead of the normal 5.25 (process B). This is intended to simulate behavior in a "seasoned" bleach whose pH increases due to carry-over of base from the developer solution. The difference between Dmin values (densities obtained in unexposed portions of the films) between process A and process B are due to continued coupling between coupler and developer carried over into the bleach. Both the lack of a stop bath and the high bleach pH in process B aggravate continued coupling. It is desirable to minimize Dmin density and Dmin variability due to continued coupling. Since conditions similar to process B are encountered in simplified trade processing, it is desirable to minimize continued coupling, as measured by the delta Dmin of process B - process A. These delta Dmin values are listed in Table VI along with λmax values and gamma values (obtained from plots of status M green density versus exposure).
(§10) 2.6 g/sq m Gelatin + 1.75 weight % BVSME* Hardener
(§11) Coupler Solvent + or - A1 @ equal weight to coupler
(§12) 1.08 g/sq m Silver Emulsion
(§13) //////Cellulose Acetate Butyrate Support//////
or Standard C-41 Bleach II
2B Bleach II Adjusted to pH = 6.0
(§14) Also included in this comparison was a 1:1 dispersion of M1 plus C2 to which was added the DIR coupler D1 (shown above) at a M1:D1 weight ratio of 1:0.045.

Data set [5] can be described thus: Photographic gamma with coupler solvents and addenda (KODAK FLEXICOLOR C-41 variants). The conditions noted are these: Table VI, no DIR coupler. How it is done: as §8
as §9, with “Both the lack of a stop bath and the high bleach pH in process B aggravate continued coupling. It is desirable to minimize Dmin density and Dmin variability due to continued coupling.” left out, “exposure). […]” for “exposure).”

Data set [6] is described as follows: λmax with coupler solvents and addenda (KODAK FLEXICOLOR C-41 variants). Format: physicochemical. The settings on record: Table VI. Here is the method: as §8, §9, §10, §11, §12, §13, §14
Data set [7] in a line: Unwanted blue light absorption of magenta dye in film (absorption spectra, FIGURE). It counts as physicochemical. The conditions noted are these: relative to dye derived from comparative coupler B5. Here is the method:
as §2
Dispersions of the comparative couplers B4, B5 and B8 and the couplers of this invention M6-M11 were prepared and coated as in Example 2. The coupler solvent S1 was again used at a 1:0.5 coupler:S1 weight ratio. Film strips of the hardened coatings were exposed, processed and analyzed as in Example 2. Couplers B4 and M6-M8 have a strongly electron-withdrawing alkoxycarbonyl substituent in the R2 position and couplers B5 and M9-M11 have a strongly electron-withdrawing alkylsulfonyl group at R2. […]

Setting [8] is: C2(0.8), aniline A1(0.2), no DIR coupler.
Setting [9] is: C2(1.0), no aniline, DIR coupler D1(0.045).
Setting [10] is: C2(1.0), no aniline, no DIR coupler.
The mark [11] stands for this setting: S1(1.0), no aniline, no DIR coupler.

On to `CCCCCCCCCCCCNS(=O)(=O)c1ccc(NC2=NN(c3c(Cl)cc(S(=O)(=O)N4CCOCC4)cc3Cl)C(=O)C2Sc2cc(C(C)(C)CC(C)(C)C)ccc2OCCCC)c(Cl)c1` (centres unmarked) [Coupler M1], for which the “λmax(nm) (+-0.5)” value in data set [1] (Table I, Example 2) is reported as 550.5 nm. In addition, the Gamma in data set [2] (Table III, Example 4) is reported as 4.4; in data set [5] (C2(0.8), aniline A1(0.2)) it was 1.83. In addition, the “% Density Loss after Formaldehyde Exposure” value in data set [3] came to 3%. Besides, the “Delta Dmin Process B-A” value in data set [4] (setting [8]) was 0.040; in data set [4] (setting [9]), 0.088; in data set [4] (setting [10]) it was 0.073. Besides, the “λmax(nm)” value in data set [6] (setting [8]), in data set [6] (setting [9]) and in data set [6] (setting [10]) was 549 nm throughout.

Regarding `CCCCCCCCCCCCNS(=O)(=O)c1ccc(NC2=NN(c3c(Cl)cc(Cl)cc3Cl)C(=O)C2Sc2cc(C(C)(C)CC(C)(C)C)ccc2OCCCC)c(Cl)c1` (centres unmarked) [Coupler B3, reference compound], the “λmax(nm) (+-0.5)” value was 546.0 nm in data set [1] (Table I, Example 2) and 546.5 nm in data set [1] (Table III, Example 4). For the same compound, the Gamma is on record as 4.7 in data set [2] (Table I, Example 2); 4.5 in data set [2] (Table III, Example 4); 1.78 in data set [5] (C2(1.0), no aniline); 2.10 in data set [5] (S1(1.0), no aniline). Besides, the “Delta Dmin Process B-A” value in data set [4] (setting [10]) stood at 0.071; in data set [4] (setting [11]) it was 0.191. The results for the “λmax(nm)” value in data set [6] (setting [10]) and in data set [6] (setting [11]) were 544 nm and 548 nm, respectively.

As to `CCCCCCCCCCCCS(=O)(=O)c1ccc(NC2=NN(c3c(Cl)cc(C#N)cc3Cl)C(=O)C2Sc2cc(C(C)(C)CC(C)(C)C)ccc2OCCCC)c(Cl)c1` (centres unmarked) [Coupler M11], in data set [1] (Table IV, Example 5), the “λmax(nm) (+-0.5)” value was found to be 551.0 nm. The compound also displayed a Gamma in data set [2] (Table IV, Example 5) of 3.3. Moreover, the “unwanted blue light absorption at 480 nm” value in data set [7] was “less unwanted blue light absorption at 480 nm”.

Values taken from patent publication US5256528A, “Magenta image-dye couplers of improved hue” (Eastman Kodak Company, priority 1992, dated 1993).
